Assays:
thromboxane-A2 receptor [1] = biological target: T1, thromboxane-A2 receptor (Homo sapiens, UniProt P21731); assay: inhibition of U-46619 induced aggregation in human platelet rich plasma; assay type: cell-based; details: in vitro
T1 sequence (P21731 1-343): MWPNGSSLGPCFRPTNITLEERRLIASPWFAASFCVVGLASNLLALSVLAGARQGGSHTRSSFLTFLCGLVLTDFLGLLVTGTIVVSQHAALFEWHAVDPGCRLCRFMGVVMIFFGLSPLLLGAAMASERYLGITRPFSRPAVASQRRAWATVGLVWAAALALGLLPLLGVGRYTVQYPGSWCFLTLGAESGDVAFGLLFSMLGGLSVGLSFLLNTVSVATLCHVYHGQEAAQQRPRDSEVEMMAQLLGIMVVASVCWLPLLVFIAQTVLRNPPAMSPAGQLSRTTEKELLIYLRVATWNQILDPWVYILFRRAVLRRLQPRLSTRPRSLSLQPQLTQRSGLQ
Experimental: (§1) The inhibition of thromboxane-A2 receptor activity is determined by measuring the inhibition of U-46619 induced platelet aggregation of aspirinated human washed platelets and in human platelet rich plasma. U-46619 is (15S)-hydroxy-11-α,9-α(epoxymethanol)-prosta-(5Z,13E)-dienoic acid, a throm boxane-A2 receptor agonist, as described by Di Minno et at, Thromb. Haemost. 45, 103 (1981).
(§2) Such inhibition of platelet aggregation is determined using methodology known in the art, e.g. in vitro in the presence of a compound of the invention in human platelet rich plasma, or by measuring the inhibition of aggregation seen in plasma obtained from a mammal previously administered a compound of the invention, e.g. orally or intravenously when compared to controls. Platelet aggregation is measured in a Born aggregometer and platelet rich plasma is prepared from venous blood e.g. as described in Br. J. Haematol. 43, 637 (1979). Suitable test animals are anesthetized rats or guinea pigs and unanesthetized rabbits or cyanomolgus monkeys.

[2] = system: U46619-induced platelet aggregation; assay: inhibition of U46619-induced platelet aggregation after oral dosing in guinea pigs; assay type: in vivo, guinea pig
Experimental: as §2

[3] = system: U46619-induced ex vivo platelet aggregation; assay: U46619-induced ex vivo platelet aggregation after oral dosing in cyanomolgus monkeys; design: species or system cyanomolgus monkey; details: 30 mg/kg
Experimental: as §2

thromboxane synthetase = assay: serum thromboxane B2, 6-keto-PGF1α and PGE2 levels after oral dosing in cyanomolgus monkeys; assay type: in vivo, cyanomolgus monkey; details: 30 mg/kg
thromboxane-A2 receptor [4] = biological target: T1, thromboxane-A2 receptor; assay: inhibition of U-46619-induced aggregation of aspirinated washed human platelets; assay type: cell-based; design: U-46619 induced platelet aggregation of aspirinated human washed platelets and in human platelet rich plasma; endogenous in cells; host or cells: human platelets (aspirinated washed platelets in A1; platelet rich plasma in A2); details: in vitro
Experimental: Acad. Sci. 76, 4097 (1979).
as §1

[5] = concomitant with serum thromboxane B2 inhibition

Compound	IC50 (thromboxane-A2 receptor [1])	inhibition of U46619-induced platelet aggregation 1 hour post dose ([2]; conscious guinea pigs, oral, 0.3 mg/kg, 1 hour post dose)	increase of the concentration of thromboxane-mimetic required to induce 50% maximal aggregation ([2]; guinea pigs, oral dose of 0.23 mg/kg)	duration of total inhibition of U46619-induced ex vivo platelet aggregation [3]	time of return of ex vivo platelet aggregation to predose values [3]	inhibition of U46619-induced ex vivo platelet aggregation ([3]; for at least 8 hours)	duration of inhibition of serum thromboxane B2 (thromboxane synthetase)	6-keto-PGF1α level (thromboxane synthetase; [5])	PGE2 level (thromboxane synthetase; [5])	IC50 (thromboxane-A2 receptor [4])
O=C(O)CC/C=C\CC[C@@H]1[C@@H](OCc2ccc(-c3ccccc3)cc2)CO[C@@H]1c1cccnc1 [Example 1, (Z)-(2S,3S,4R)-7-[4-(1,1'-biphenyl-4-ylmethoxy)-2-(3-pyridyl)tetrahydrofuran-3-yl]-4-heptenoic acid]	250 nM	effectively inhibits	50 fold	at least 8 hours	24 h	totally inhibited	24 h	elevations	elevations	26.5 nM
O=C(O)CCC=CCCC1C(OCc2ccc(-c3ccccc3)cc2)COC1c1cccnc1 (stereo not drawn) [Example 8(a), (Z)-(2α,3β,4β)-7-[4-(biphenyl-4-yl-methoxy)-2-(3-pyridyl)tetrahydrofuran-3-yl)hept-4-enoic acid]	~400 nM	–	–	–	–	–	–	–	–	28 nM

From patent US5371096A, “(3-pyridyl)tetrafuran-2-yl substituted carboxylic acids” (Ciba-Geigy Corporation, priority 1993, dated 1994)
